{"source": "ChEMBL document CHEMBL1156868", "about": "“One step radiosynthesis of 6-[(18)F]fluoronicotinic acid 2,3,5,6-tetrafluorophenyl ester ([(18)F]F-Py-TFP): a new prosthetic group for efficient labeling of biomolecules with fluorine-18” (J Med Chem, 2010)"}
{"biological_target": "Integrin alpha-V/beta-3 (Homo sapiens, UniProt P05106+P06756)", "sequence (P05106 27-788 limits assumed)": "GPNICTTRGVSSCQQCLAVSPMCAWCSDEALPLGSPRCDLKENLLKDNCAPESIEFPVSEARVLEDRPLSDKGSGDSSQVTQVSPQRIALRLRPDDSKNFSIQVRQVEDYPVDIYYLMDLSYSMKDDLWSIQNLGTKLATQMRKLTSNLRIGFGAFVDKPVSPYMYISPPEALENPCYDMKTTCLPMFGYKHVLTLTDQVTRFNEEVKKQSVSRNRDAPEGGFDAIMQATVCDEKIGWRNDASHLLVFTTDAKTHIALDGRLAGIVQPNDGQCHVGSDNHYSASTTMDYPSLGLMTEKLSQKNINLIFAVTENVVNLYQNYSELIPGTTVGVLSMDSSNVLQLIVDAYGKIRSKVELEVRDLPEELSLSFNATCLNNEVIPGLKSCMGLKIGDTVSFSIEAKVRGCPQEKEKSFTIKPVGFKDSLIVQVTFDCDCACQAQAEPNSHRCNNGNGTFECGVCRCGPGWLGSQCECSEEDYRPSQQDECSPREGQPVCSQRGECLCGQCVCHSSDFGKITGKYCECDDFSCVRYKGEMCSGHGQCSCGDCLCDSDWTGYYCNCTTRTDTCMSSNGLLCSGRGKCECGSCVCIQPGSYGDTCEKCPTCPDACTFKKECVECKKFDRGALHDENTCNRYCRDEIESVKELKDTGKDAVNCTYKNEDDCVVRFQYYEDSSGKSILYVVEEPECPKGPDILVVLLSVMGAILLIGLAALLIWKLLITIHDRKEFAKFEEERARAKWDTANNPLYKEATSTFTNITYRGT", "sequence (P06756 31-889 limits assumed)": "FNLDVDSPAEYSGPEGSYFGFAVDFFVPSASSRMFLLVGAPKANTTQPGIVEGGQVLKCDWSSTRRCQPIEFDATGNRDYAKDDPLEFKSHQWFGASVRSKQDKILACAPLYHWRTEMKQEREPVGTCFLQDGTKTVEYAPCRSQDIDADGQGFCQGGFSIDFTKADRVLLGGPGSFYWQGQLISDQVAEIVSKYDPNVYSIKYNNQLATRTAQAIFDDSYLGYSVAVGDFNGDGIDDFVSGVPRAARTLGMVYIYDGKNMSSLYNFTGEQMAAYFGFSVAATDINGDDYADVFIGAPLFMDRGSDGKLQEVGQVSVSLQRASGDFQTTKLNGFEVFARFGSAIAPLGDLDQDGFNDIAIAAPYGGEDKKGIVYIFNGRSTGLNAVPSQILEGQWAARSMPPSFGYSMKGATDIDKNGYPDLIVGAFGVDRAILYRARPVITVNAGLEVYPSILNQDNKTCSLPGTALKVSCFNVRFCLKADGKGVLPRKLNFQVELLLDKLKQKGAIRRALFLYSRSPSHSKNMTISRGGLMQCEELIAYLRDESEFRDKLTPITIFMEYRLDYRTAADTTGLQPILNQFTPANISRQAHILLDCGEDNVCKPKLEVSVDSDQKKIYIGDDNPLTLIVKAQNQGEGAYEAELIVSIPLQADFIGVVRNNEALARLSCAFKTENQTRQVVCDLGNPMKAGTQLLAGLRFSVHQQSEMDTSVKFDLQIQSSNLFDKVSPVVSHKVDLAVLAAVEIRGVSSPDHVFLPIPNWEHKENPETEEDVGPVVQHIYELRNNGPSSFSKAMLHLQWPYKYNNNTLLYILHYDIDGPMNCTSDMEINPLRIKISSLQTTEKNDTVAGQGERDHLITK", "sequence (P06756 891-1048 limits assumed)": "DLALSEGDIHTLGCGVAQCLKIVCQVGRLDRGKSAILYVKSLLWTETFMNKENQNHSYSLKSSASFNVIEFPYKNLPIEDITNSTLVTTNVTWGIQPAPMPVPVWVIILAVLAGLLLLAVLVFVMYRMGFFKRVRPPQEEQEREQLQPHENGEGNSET", "experiment": "Displacement of [125I]echistatin from alphaVbeta3 receptor in human EA-Hy926 cells by gamma-counting", "type": "cell-based", "units": {"Ki": "µM"}}
{"smiles": "Cc1cc(C)c(S(=O)(=O)N[C@H](CNC(=O)c2cn(CCCNC(=O)COCC(=O)NCCOCCOCCOCCOCCOCCOCCOCCOCCOCCOCCOCCNC(=O)c3ccc(F)nc3)c3cc(CNc4ncc[nH]4)ccc3c2=O)C(=O)O)c(C)c1", "Ki": 0.0148}
{"smiles": "Cc1cc(C)c(S(=O)(=O)N[C@H](CNC(=O)c2cn(CCCNC(=O)c3ccc(F)nc3)c3cc(CNc4ncc[nH]4)ccc3c2=O)C(=O)O)c(C)c1", "Ki": 0.0191}
{"smiles": "NC(=O)COCC(=O)NCCOCCOCCOCCNC(=O)[C@@H]1CSCC(=O)N[C@@H](CCCCNC(=O)COCC(=O)NCCOCCOCCOCCOCCOCCNC(=O)CONC(=O)c2ccc(F)nc2)C(=O)N[C@H]2CSSC[C@H](NC(=O)[C@H](CC(=O)O)NC(=O)CNC(=O)[C@H](CCCN=C(N)N)NC2=O)C(=O)N[C@@H](Cc2ccccc2)C(=O)C1", "Ki": 0.002}
